Results published in PubChem BioAssay AID328 (DTP/NCI, 2004).
“And” between values parts separate entries of the source, which are not always exact repeats. Equal entries are not always repeated. Inconclusive results and toxic doses are left out.

System: BDF1 mice, P388 leukemia ip, median survival T/C
Test: NCI In Vivo Anticancer Drug Screen. Data for tumor model P388 Leukemia (intraperitoneal) in B6D2F1 (BDF1) mice
Conditions: endpoint: median survival time, higher = longer survival
Outline: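 Vehicle-dosed animals serve as the reference; survival of compound-dosed, tumour-implanted mice is divided by it.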

[1] = dose: 15.0 mg/kg/injection, schedule: Q01DX009 (ip), vehicle: saline with Tween-80
[2] = dose: 30.0 mg/kg/injection, schedule: Q01DX009 (ip), vehicle: saline with Tween-80
[3] = dose: 60.0 mg/kg/injection, schedule: Q01DX009 (ip), vehicle: saline with Tween-80
[4] = dose: 50.0 mg/kg/injection, schedule: Q01DX009 (ip), vehicle: Klucel (hydroxypropylcellulose) (HPC)
[5] = dose: 50.0 mg/kg/injection, schedule: Q04DX003 (ip), vehicle: Klucel (hydroxypropylcellulose) (HPC)
[6] = dose: 100.0 mg/kg/injection, schedule: Q01DX009 (ip), vehicle: Klucel (hydroxypropylcellulose) (HPC)
[7] = dose: 200.0 mg/kg/injection, schedule: Q01DX009 (ip), vehicle: Klucel (hydroxypropylcellulose) (HPC)
[8] = dose: 200.0 mg/kg/injection, schedule: Q04DX003 (ip), vehicle: Klucel (hydroxypropylcellulose) (HPC)
[9] = dose: 25.0 mg/kg/injection, schedule: Q01DX009 (ip), vehicle: saline
[10] = dose: 25.0 mg/kg/injection, schedule: Q04DX003 (ip), vehicle: saline
[11] = dose: 50.0 mg/kg/injection, schedule: Q01DX009 (ip), vehicle: saline
[12] = dose: 50.0 mg/kg/injection, schedule: Q04DX003 (ip), vehicle: saline
[13] = dose: 100.0 mg/kg/injection, schedule: Q04DX003 (ip), vehicle: saline with Tween-80
[14] = dose: 200.0 mg/kg/injection, schedule: Q04DX003 (ip), vehicle: saline with Tween-80
[15] = dose: 400.0 mg/kg/injection, schedule: Q04DX003 (ip), vehicle: saline with Tween-80
[16] = dose: 25.0 mg/kg/injection, schedule: Q01DX009 (ip), vehicle: saline with Tween-80
[17] = dose: 50.0 mg/kg/injection, schedule: Q01DX009 (ip), vehicle: saline with Tween-80
[18] = dose: 100.0 mg/kg/injection, schedule: Q01DX009 (ip), vehicle: saline with Tween-80
[19] = dose: 25.0 mg/kg/injection, schedule: Q04DX003 (ip), vehicle: saline with Tween-80

SMILES: N#CCCN1CCCCCC1
- T/C [1]: 104 % of control
- T/C [2]: 89 % of control
- T/C [3]: 98 % of control

SMILES: O=C1C=CC(=O)C23CC=CCC12C(=O)c1ccccc1C3=O (stereo not drawn)
- T/C (dose: 6.25 mg/kg/injection, schedule: Q04DX003 (ip), vehicle: water): 107 % of control
- T/C (dose: 12.5 mg/kg/injection, schedule: Q04DX003 (ip), vehicle: water): 107 % of control
- T/C (dose: 25.0 mg/kg/injection, schedule: Q04DX003 (ip), vehicle: water): 92 % of control

SMILES: COc1cccc(CC(=O)C(=O)O)c1
- T/C [4]: 95 % of control
- T/C [5]: 100 % of control
- T/C [6]: 104 % of control
- T/C (dose: 100.0 mg/kg/injection, schedule: Q04DX003 (ip), vehicle: Klucel (hydroxypropylcellulose) (HPC)): 115 % of control
- T/C [7]: 90 % of control
- T/C [8]: 110 % of control

SMILES: CC1=CCS(=O)(=O)C1
- T/C (dose: 25.0 mg/kg/injection, schedule: Q01DX001 (ip), vehicle: other): 95 % of control
- T/C [9]: 113 % of control
- T/C [10]: 91 % of control
- T/C (dose: 50.0 mg/kg/injection, schedule: Q01DX001 (ip), vehicle: other): 86 % of control
- T/C [11]: 100 % of control
- T/C [12]: 87 % of control
- T/C (dose: 100.0 mg/kg/injection, schedule: Q01DX001 (ip), vehicle: other): 95 % of control
- T/C (dose: 100.0 mg/kg/injection, schedule: Q01DX009 (ip), vehicle: saline): 109 % of control
- T/C (dose: 100.0 mg/kg/injection, schedule: Q04DX003 (ip), vehicle: saline): 91 % of control

SMILES: CCCCCCCCCCCCCCCCOc1c(Br)cc(Br)cc1Br
- T/C (dose: 50.0 mg/kg/injection, schedule: Q01DX001 (ip), vehicle: saline with Tween-80): 90 % of control

SMILES: CC[N+](CC)(CC)CC
- T/C (dose: 3.13 mg/kg/injection, schedule: Q01DX009 (ip), vehicle: saline with Tween-80): 110 % of control
- T/C (dose: 6.0 mg/kg/injection, schedule: Q01DX009 (ip), vehicle: saline with Tween-80): 183 % of control
- T/C (dose: 9.0 mg/kg/injection, schedule: Q01DX009 (ip), vehicle: saline with Tween-80): 94 % of control
- T/C (dose: 12.5 mg/kg/injection, schedule: Q01DX009 (ip), vehicle: saline): 107 % of control
- T/C (dose: 12.5 mg/kg/injection, schedule: Q04DX003 (ip), vehicle: saline): 95 % of control
- T/C [9]: 107 % of control
- T/C [10]: 91 % of control
- T/C [11]: 92 % of control
- T/C [12]: 100 % of control

SMILES: N#CC(CC(=O)OCc1ccccc1)NC(=O)OCc1ccccc1 (stereo not drawn)
- T/C [13]: 95 % of control
- T/C [14]: 90 % of control
- T/C [15]: 100 % of control

SMILES: CCOC(=O)C(C(C)=O)C(C)C (stereo not drawn)
- T/C (dose: 100.0 mg/kg/injection, schedule: Q01DX005 (ip), vehicle: other): 112 % of control
- T/C (dose: 200.0 mg/kg/injection, schedule: Q01DX005 (ip), vehicle: other): 117 % of control
- T/C (dose: 400.0 mg/kg/injection, schedule: Q01DX005 (ip), vehicle: other): 109 % of control

SMILES: NC(=S)c1ncc(N)s1
- T/C [16]: 89 % of control
- T/C [17]: 98 % of control
- T/C [18]: 106 % of control

SMILES: COc1ccc2c3c(c4cc(OC)c(OC)cc4c2c1)C[C@H]1CCCCN1C3
- T/C (dose: 0.25 mg/kg/injection, schedule: Q01DX010 (ip), vehicle: saline): 100 % of control
- T/C (dose: 0.5 mg/kg/injection, schedule: Q01DX010 (ip), vehicle: saline): 120 % of control
- T/C (dose: 1.0 mg/kg/injection, schedule: Q01DX010 (ip), vehicle: saline): 120 % of control
- T/C (dose: 2.0 mg/kg/injection, schedule: Q01DX010 (ip), vehicle: saline): 91 % of control

SMILES: [N-]=[N+]=NC(=O)c1ccccn1
- T/C [16]: 101 % of control

SMILES: O=c1oc(-c2ccc(C[n+]3ccc4ccccc4c3)cc2)nc2ccccc12
- T/C (dose: 50.0 mg/kg/injection, schedule: Q01DX005 (ip), vehicle: saline with Tween-80): 100 % of control
- T/C (dose: 100.0 mg/kg/injection, schedule: Q01DX005 (ip), vehicle: saline with Tween-80): 99 % of control
- T/C (dose: 200.0 mg/kg/injection, schedule: Q01DX005 (ip), vehicle: saline with Tween-80): 104 % of control

SMILES: Nc1ncnc2c1ccn2C1OC2COP(=O)(O)OC2C1O (stereo not drawn)
- T/C (dose: 0.63 mg/kg/injection, schedule: Q01DX010 (ip), vehicle: saline): 100 % of control
- T/C (dose: 1.25 mg/kg/injection, schedule: Q01DX010 (ip), vehicle: saline): 110 % of control
- T/C (dose: 5.0 mg/kg/injection, schedule: Q01DX010 (ip), vehicle: saline): 150 % of control

SMILES: O=[N+]([O-])c1ccc(SCc2ccccc2)c2c1no[n+]2[O-]
- T/C [1]: 105 % of control
- T/C [2]: 96 % of control
- T/C [3]: 93 % of control

SMILES: CC(=O)ON(CC(=O)OCc1ccccc1)C(C)=O
- T/C (dose: 12.5 mg/kg/injection, schedule: Q01DX009 (ip), vehicle: other): 100 % of control
- T/C (dose: 25.0 mg/kg/injection, schedule: Q01DX009 (ip), vehicle: other): 102 % of control
- T/C (dose: 50.0 mg/kg/injection, schedule: Q01DX009 (ip), vehicle: other): 118 % of control
- T/C (dose: 100.0 mg/kg/injection, schedule: Q01DX009 (ip), vehicle: other): 102 % of control
- T/C (dose: 200.0 mg/kg/injection, schedule: Q01DX009 (ip), vehicle: other): 100 % of control

SMILES: O=S(=O)(F)c1ccc2nc(-c3cccc(Sc4ccccc4)c3)cc(Cl)c2c1
- T/C [13]: 90 % of control
- T/C [14]: 100 % of control
- T/C [15]: 100 % of control

SMILES: FC(F)(F)c1ccc2c(c1)N(CCCN1CCN(CCOc3ccccc3)CC1)c1ccccc1S2
- T/C (dose: 6.25 mg/kg/injection, schedule: Q04DX003 (ip), vehicle: saline with Tween-80): 96 % of control and 115 % of control
- T/C (dose: 12.5 mg/kg/injection, schedule: Q04DX003 (ip), vehicle: saline with Tween-80): 93 % of control and 115 % of control
- T/C [19]: 114 % of control and 122 % of control

SMILES: CCOC(=O)c1cnn2c(SC)ncnc12
- T/C (dose: 12.5 mg/kg/injection, schedule: Q01DX009 (ip), vehicle: saline with Tween-80): 99 % of control
- T/C [16]: 111 % of control
- T/C [19]: 109 % of control
- T/C [17]: 101 % of control
- T/C (dose: 50.0 mg/kg/injection, schedule: Q04DX003 (ip), vehicle: saline with Tween-80): 100 % of control
- T/C [18]: 99 % of control
- T/C [13]: 109 % of control

SMILES: Oc1ccc(C2CCCCC2)c(O)c1
- T/C [4]: 100 % of control
- T/C [5]: 91 % of control
- T/C [6]: 104 % of control
- T/C [7]: 100 % of control
- T/C [8]: 91 % of control

SMILES: [NH-]S(=O)(=O)O.[NH-]S(=O)(=O)O.[NH2-].[NH2-].[Pt+4]
- T/C (dose: 10.0 mg/kg/injection, schedule: Q01DX009 (ip), vehicle: saline with Tween-80): 90 % of control
- T/C (dose: 10.0 mg/kg/injection, schedule: Q04DX003 (ip), vehicle: saline): 100 % of control
- T/C (dose: 20.0 mg/kg/injection, schedule: Q01DX009 (ip), vehicle: saline with Tween-80): 100 % of control
- T/C (dose: 20.0 mg/kg/injection, schedule: Q04DX003 (ip), vehicle: saline): 100 % of control
- T/C (dose: 40.0 mg/kg/injection, schedule: Q01DX009 (ip), vehicle: saline with Tween-80): 90 % of control
- T/C (dose: 40.0 mg/kg/injection, schedule: Q04DX003 (ip), vehicle: saline): 108 % of control
